Experiment [1] addresses T1, IDO1 (Homo sapiens, UniProt P14902). Description: Hela cell-based IDO1 assay. The following applies: Hela cells. In short, it runs like this:
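HeLa cells were plated at 8000 per well in 96-well plates containing phenol red-free DMEM with 10% FBS, and after 4 hours compound dilutions made in DMSO were added together with IFN-γ (final 100 ng/mL) and 0.4 mM L-Trp before 48 hours at 37 °C, 5% CO2. Supernatants were deproteinised with trichloroacetic acid, mixed with 2% 4-(dimethylamino)benzaldehyde and read at 480 nm for kynurenine. Four-parameter logistic fits were run in XLfit. Potency was derived from these fits.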

The target of experiment [2] is T2, cellular TDO2 in HEK293-TDO2 cells (Homo sapiens, UniProt P48775).
T2 construct: expressed in transfected cells; host or cells: HEK293 (ATCC), stably transfected
T2 sequence (P48775 whole entry): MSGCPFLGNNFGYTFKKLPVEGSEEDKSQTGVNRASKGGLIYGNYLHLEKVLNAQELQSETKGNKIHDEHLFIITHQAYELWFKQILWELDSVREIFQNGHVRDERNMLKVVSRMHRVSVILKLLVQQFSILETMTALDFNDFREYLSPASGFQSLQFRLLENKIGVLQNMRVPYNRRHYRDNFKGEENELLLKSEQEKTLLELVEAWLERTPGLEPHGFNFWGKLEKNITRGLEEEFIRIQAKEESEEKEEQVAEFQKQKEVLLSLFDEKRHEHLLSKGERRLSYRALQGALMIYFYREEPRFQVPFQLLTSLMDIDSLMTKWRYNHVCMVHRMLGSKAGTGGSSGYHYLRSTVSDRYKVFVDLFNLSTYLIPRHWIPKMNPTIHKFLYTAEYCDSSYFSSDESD
Description: 293-TDO2 cell-based assay (Kyn colorimetric). To be noted: 48 hours of incubation. In short, it runs like this:
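Kyn formed from L-Trp was read colorimetrically at 480 nm (TCA deproteinisation, then 2% 4-(dimethylamino)benzaldehyde). Compounds were added to 293-TDO2 cells 4 h post-seeding and left 48 h at 37° C. A four-parameter logistic model gave IC50 values.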

Experiment [3] has as its target T1, IDO1. Description: IDO1 enzymatic assay. The class given is biochemical. The arrangement: His tag (N); made in house; host or cells: E. coli. The following applies: read-out: Enzyme IC50 IDO1. Put shortly:
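Assays were run in 50 mM potassium phosphate pH 7.5 with 0.1% BSA for 1.5 hours at 24 °C. Each contained 50 nM E. coli-purified, N-terminally His-tagged IDO1, compound, 1.3 mM D-tryptophan, 5 mM L-ascorbic acid, methylene blue and 0.4 mg/mL catalase. IC50 was calculated from remaining enzyme activity across a rising compound series, with activity taken as the slope of N'-formylkynurenine formation read continuously at 321 nm for 1 hour.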

This is an account of results in patent US10882856B2 (BeiGene, Ltd., priority 2017, dated 2021).

Each structure is given as a SMILES string. Some results are limits rather than exact numbers.

T1 sequence (P14902 whole entry): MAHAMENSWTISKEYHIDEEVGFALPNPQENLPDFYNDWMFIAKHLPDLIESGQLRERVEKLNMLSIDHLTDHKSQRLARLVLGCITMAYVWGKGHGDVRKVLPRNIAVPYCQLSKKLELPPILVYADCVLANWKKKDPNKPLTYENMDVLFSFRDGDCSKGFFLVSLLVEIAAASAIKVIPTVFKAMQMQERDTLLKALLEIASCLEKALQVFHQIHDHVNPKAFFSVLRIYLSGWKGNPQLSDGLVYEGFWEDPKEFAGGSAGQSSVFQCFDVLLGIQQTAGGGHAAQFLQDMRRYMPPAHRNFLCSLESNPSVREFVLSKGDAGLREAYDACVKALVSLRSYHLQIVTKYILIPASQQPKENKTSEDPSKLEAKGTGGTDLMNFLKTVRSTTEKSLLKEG

Regarding `O=C(O)c1ccc(N2CCC(C(O)c3c(C4CC4)ccn4cncc34)CC2)cc1` (stereo not drawn) [Example C145, 4-(4-((7-cyclopropylimidazo[1,5-a]pyridin-8-yl)(hydroxy)methyl)piperidin-1-yl)benzoic acid], the EC50 (at IDO1 [1]; in experiment [2]) was greater than 10 µM each time. The IC50 (as a rule, the concentration at which inhibition is half-maximal) at IDO1 [3] turned out to be 0.09 µM.

As for `OC(c1c(C2CC2)ccn2cncc12)C1CCN(c2ccccn2)CC1` (stereo not drawn) [Example C146, (7-cyclopropylimidazo[1,5-a]pyridin-8-yl)(1-(pyridin-2-yl)piperidin-4-yl)methanol], the results for the half-maximal effective concentration (EC50) (on IDO1 [1]; in experiment [2]) were 2.23 µM and greater than 10 µM, respectively. Besides, the IC50 at IDO1 [3] is 0.047 µM.

Take `OC(c1c(C2CC2)ccn2cncc12)C1CCN(c2ccncc2)CC1` (stereo not drawn) [Example C147, (7-cyclopropylimidazo[1,5-a]pyridin-8-yl)(1-(pyridin-4-yl)piperidin-4-yl)methanol]: the 50% effective concentration (EC50) (on IDO1 [1]; in experiment [2]) was greater than 10 µM in each case. On IDO1 [3], the 50% inhibitory concentration (IC50) was 2.3 µM.

As for `OC(c1c(C2CC2)ccn2cncc12)C1CCN(c2cccnc2)CC1` (stereo not drawn) [Example C148, (7-cyclopropylimidazo[1,5-a]pyridin-8-yl)(1-(pyridin-3-yl)piperidin-4-yl)methanol], the figures for the EC50 (on IDO1 [1]; in experiment [2]) were 1.29 µM and greater than 10 µM, respectively. Also, the IC50 on IDO1 [3] is 0.074 µM.

`OC(c1c(C2CC2)ccn2cncc12)C1CCN(c2ccc(F)c3ncccc23)CC1` (stereo not drawn) [Example C149, (7-cyclopropylimidazo[1,5-a]pyridin-8-yl)(1-(8-fluoroquinolin-5-yl)piperidin-4-yl)methanol]: the results for the concentration giving a half-maximal response (EC50) (at IDO1 [1]; in experiment [2]) were 0.042 µM and greater than 10 µM, respectively. In addition, at IDO1 [3], the half-maximal inhibitory concentration (IC50) worked out at 0.04 µM.

Turning to `OC(c1c(C2CC2)ccn2cncc12)C1CCN(c2ccnc3ccccc23)CC1` (stereo not drawn) [Example C150, (7-cyclopropylimidazo[1,5-a]pyridin-8-yl)(1-(quinolin-4-yl)piperidin-4-yl)methanol], the 50% effective concentration (EC50) (usually the concentration at which the effect is half-maximal) on IDO1 [1] is 1.51 µM; in experiment [2], greater than 10 µM. Also, at IDO1 [3], the IC50 was 0.16 µM.

Turning to `OC(c1c(C2CC2)ccn2cncc12)C1CCN(c2ccnc3ccc(F)cc23)CC1` (stereo not drawn) [Example C151, (7-cyclopropylimidazo[1,5-a]pyridin-8-yl)(1-(6-fluoroquinolin-4-yl)piperidin-4-yl)methanol], the values for the EC50 (at IDO1 [1]; in experiment [2]) were 0.373 µM and greater than 10 µM, respectively. Further, the IC50 on IDO1 [3] was 0.035 µM.

As for `OC(c1c(C2CC2)ccn2cncc12)C1CCN(c2ccc(Cl)c3ncccc23)CC1` (stereo not drawn) [Example C154, (1-(8-chloroquinolin-5-yl)piperidin-4-yl)(7-cyclopropylimidazo[1,5-a]pyridin-8-yl)methanol], the EC50 at IDO1 [1] was 0.049 µM; in experiment [2], greater than 10 µM. The IC50 on IDO1 [3] came out at 0.036 µM.

Consider `OC(c1c(C2CC2)ccn2cncc12)C1CCN(c2ccc(F)c3cccnc23)CC1` (stereo not drawn) [Example C155, (7-cyclopropylimidazo[1,5-a]pyridin-8-yl)(1-(5-fluoroquinolin-8-yl)piperidin-4-yl)methanol], for which the EC50 at IDO1 [1] is 0.149 µM; in experiment [2], greater than 10 µM. Also, at IDO1 [3], the half-inhibitory concentration (IC50) was determined as 0.061 µM.

Take `OC(c1c(C2CC2)ccc2cncn12)C1CCC(c2ccccc2)CC1` (stereo not drawn) [Example D101, (6-cyclopropylimidazo[1,5-a]pyridin-5-yl)(4-phenylcyclohexyl)methanol]: the results for the concentration giving a half-maximal response (EC50) (at IDO1 [1]; in experiment [2]) were 0.1 µM and greater than 10 µM, respectively. Moreover, the IC50 at IDO1 [3] worked out at 0.027 µM.

In the case of `COc1ccc(C2CCC(C(O)c3c(C4CC4)ccc4cncn34)CC2)cc1` (stereo not drawn) [Example D102, (6-cyclopropylimidazo[1,5-a]pyridin-5-yl)(4-(4-methoxyphenyl)cyclohexyl)methanol], the concentration giving a half-maximal response (EC50) on IDO1 [1] was 0.074 µM; in experiment [2], greater than 10 µM. For the same compound, at IDO1 [3], the 50% inhibitory concentration (IC50) came out at 0.023 µM.

Consider `OC(c1c(C2CC2)ccc2cncn12)C1CCC(c2ccc(Cl)cc2)CC1` (stereo not drawn) [Example D103, (4-(4-chlorophenyl)cyclohexyl)(6-cyclopropylimidazo[1,5-a]pyridin-5-yl)methanol], for which the concentration for a half-maximal effect (EC50) is 0.163 µM at IDO1 [1] and greater than 10 µM in experiment [2]. Also, the half-maximal inhibitory concentration (IC50) on IDO1 [3] came out at 0.038 µM.

Turning to `OC(c1c(C2CC2)ccc2cncn12)C1CCC(c2ccc(F)cc2)CC1` (stereo not drawn) [Example D104, (6-cyclopropylimidazo[1,5-a]pyridin-5-yl)(4-(4-fluorophenyl)cyclohexyl)methanol], the 50% effective concentration (EC50) is 0.044 µM at IDO1 [1] and greater than 10 µM in experiment [2]. The IC50 at IDO1 [3] was determined as 0.033 µM.

Take `OC(c1c(C2CC2)ccc2cncn12)C1CCC(c2ccc(OC(F)(F)F)cc2)CC1` (stereo not drawn) [Example D105, (6-cyclopropylimidazo[1,5-a]pyridin-5-yl)(4-(4-trifluoromethoxy)phenylcyclohexyl)methanol]: the EC50 was 0.869 µM on IDO1 [1] and greater than 10 µM in experiment [2]. In addition, the half-maximal inhibitory concentration (IC50) at IDO1 [3] was found to be 0.076 µM.

As to `Oc1ccc(C2CCC(C(O)c3c(C4CC4)ccc4cncn34)CC2)cc1` (stereo not drawn) [Example D106, 4-(4-((6-cyclopropylimidazo[1,5-a]pyridin-5-yl)(hydroxy)methyl)cyclohexyl)phenol], the EC50 is 0.068 µM at IDO1 [1] and greater than 10 µM in experiment [2]. Also, the concentration for half-maximal inhibition (IC50) at IDO1 [3] was determined as 0.03 µM.

Turning to `Oc1ccc([C@H]2CC[C@H]([C@@H](O)c3c(C4CC4)ccc4cncn34)CC2)cc1` [Example D106b, 4-((1R,4r)-4-((R)-(6-cyclopropylimidazo [1,5-a]pyridin-5-yl)(hydroxy)methyl)cyclohexyl)phenol], the EC50 on IDO1 [1] was 2.58 µM; in experiment [2], greater than 10 µM. Also, on IDO1 [3], the IC50 came out at 1.1 µM.

For the compound `OC(c1c(C2CC2)ccc2cncn12)C1CCC(c2ccc(C(F)(F)F)nc2)CC1` (stereo not drawn) [Example D107, (6-cyclopropylimidazo[1,5-a]pyridin-5-yl)(4-(6-(trifluoromethyl)pyridin-3-yl)cyclohexyl)methanol], the concentration for a half-maximal effect (EC50) was 1.48 µM at IDO1 [1] and greater than 10 µM in experiment [2]. Also, the half-maximal inhibitory concentration (IC50) on IDO1 [3] turned out to be 0.03 µM.

On to `OCC(CCl)Oc1ccc(C2CCC(C(O)c3c(C4CC4)ccc4cncn34)CC2)cc1` (stereo not drawn) [Example D108, 3-chloro-2-(4-(4-((6-cyclopropylimidazo[1,5-a]pyridin-5-yl) (hydroxy)methyl)cyclohexyl)phenoxy)propan-1-ol], for which the EC50 is 0.072 µM at IDO1 [1] and greater than 10 µM in experiment [2]. Besides, the 50% inhibitory concentration (IC50) on IDO1 [3] was 0.03 µM.

`OC(c1c(C2CC2)ccc2cncn12)C1CCC(c2ccc(OC3COC3)cc2)CC1` (stereo not drawn) [Example D109, (6-cyclopropylimidazo[1,5-a]pyridin-5-yl)(4-(4-(oxetan-3-yloxy)phenyl)cyclohexyl)methanol]: the concentration for a half-maximal effect (EC50) on IDO1 [1] is 0.206 µM; in experiment [2] it was greater than 10 µM. Also, the 50% inhibitory concentration (IC50) at IDO1 [3] came out at 0.039 µM.

With `N#Cc1ccc(C2CCC(C(O)c3c(C4CC4)ccc4cncn34)CC2)cc1` (stereo not drawn) [Example D110, 4-(4-((6-cyclopropylimidazo[1,5-a]pyridin-5-yl)(hydroxy)methyl)cyclohexyl)benzonitrile], the EC50 was 0.373 µM on IDO1 [1] and greater than 10 µM in experiment [2]. On IDO1 [3], the IC50 amounted to 0.04 µM.

For the compound `O=C(O)c1ccc(C2CCC(C(O)c3c(C4CC4)ccc4cncn34)CC2)cc1` (stereo not drawn) [Example D111, 4-(4-((6-cyclopropylimidazo[1,5-a]pyridin-5-yl)(hydroxy)methyl)cyclohexyl)benzoic acid], the EC50 on IDO1 [1] was 0.47 µM; in experiment [2], greater than 10 µM. Also, the half-inhibitory concentration (IC50) on IDO1 [3] was found to be 0.025 µM.
